One test has as its target T1, PI3Kα H1047R (Homo sapiens, UniProt P42336, H1047R).
T1 construct: The MDA-MB-453 (ATCC-HTB-131) cell line (PI3Kα H1047R); host or cells: MDA-MB-453
Description: PI3Kα H1047R mutant in vitro cell based assay, MDA-MB-453 cells (AlphaLisa SureFire). Particulars: MDA-MB-453 cell line, 0% FBS, 3 hours treatment. An excerpt: PI3K-Alpha Kinase (PI3Kα) Activity: Wild-Type PI3Kα, H1047R Mutant PI3Kα, and E545K Mutant PI3Kα In Vitro Cell Based Assays and Determination of IC50 Values for Inhibitors
The MDA-MB-453 (ATCC-HTB-131) cell line (PI3Kα H1047R) and MCF-7 (ATCC-HTB-22) cell line (PI3Kα E545K), MDA-MB-361 (ATCC-HTB-27) cell line (PI3Kα E545K), and SKBR3 (ATCC-HTB-30) cell line (wild type PI3Kα) were obtained from the American Type Culture Collection (Manassas, VA). MDA-MB-453 cells were maintained in Dulbecco's Modified Eagle Media (DMEM, Gibco 12430) supplemented with 10% Fetal Bovine Serum, heat inactivated (FBS HI, Gibco 10082), 1× non-essential amino acids (NEAA, Gibco 11140), 1 mM sodium pyruvate (Gibco 11360) and 1× Anti-Anti (Gibco 15240). MCF-7 cells were maintained in Minimum Essential Media (MEM) (Gibco 11095) supplemented with 10% Fetal Bovine Serum, heat inactivated (FBS HI, Gibco 10082), 1× non-essential amino acids (NEAA, Gibco 11140), 1 mM sodium pyruvate (Gibco 11360), 1× Anti-Anti (Gibco 15240) and 10 μg/mL human insulin (Sigma I 9278). MDA-MB-361 cells were maintained in Dulbecco's Modified Eagle Media (DMEM, Gibco 12430) supplemented with 20% Fetal Bovine Serum, heat inactivated (FBS HI, Gibco 10082), 1× non-essential amino acids (NEAA, Gibco 11140), 1 mM sodium pyruvate (Gibco 11360) and 1× Anti-Anti (Gibco 15240). SKBR3 cells were maintained in McCoy's 5A (Gibco 16600) supplemented with 10% Fetal Bovine Serum, heat inactivated (FBS HI, Gibco 10082), and 1× Anti-Anti (Gibco 15240). Cultures were maintained in a humidified incubator at 37° C. under 5% CO2/95% air.
For compound testing in 0% FBS, MDA-MB-453, MCF-7 and SKBR3 cells were seeded at a density of 1.5×10^4, 1.0×10^4, and 1.0×10^4 cells, respectively, per well in white 384-well plates in 20 μl of Minimum Essential Media (MEM) assay media with 1×NEAA, 1 mM sodium pyruvate, and 1 μg/mL human insulin (Sigma 19278) (Assay Medium); while MDA-MB-361 cells were seeded at a density of 1.5×10^4 per well in white 384-well plates in 20 μl Assay Medium without insulin. After plating, cells were allowed to attach overnight. Compounds dissolved in 10 mM stock solutions in DMSO were serially diluted 1:3 in DMSO to generate a 10-point dilution series and plated using an acoustic liquid handler system (Echo 550 Series Liquid Handler, Labcyte). A 5× intermediate compound dilution plate in MEM with 1×NEAA and 1 mM sodium pyruvate (150 μM starting compound concentration in 1.5% DMSO) was then prepared. Five μl of the intermediate serially diluted compounds were added to the cell plate to final concentrations ranging from […] in 0.3% DMSO. 0.3% DMSO alone was used to establish the maximum (MAX) signal and GDC-0032 at a final concentration of 1 μM was used as a reference compound for the minimum (MIN) signal. After 3 hours treatment, the medium was removed, and the cells were lysed in 10 μL of 1× SureFire Lysis buffer with shaking for 10 minutes at room temperature. The Acceptor Mix (Reaction Buffer 1+Reaction Buffer 2+Activation Buffer+SureFire Ultra Acceptor Beads) was prepared by diluting Activation buffer 25-fold in combined Reaction Buffer 1 and Reaction Buffer 2.
The Acceptor beads were diluted 50-fold in the combined Reaction Buffers. Five μL of Acceptor Mix was added to each well, the plate was sealed and covered with foil and incubated for 1 hour at room temperature. The Donor Mix (dilution buffer+SureFire Ultra Donor Beads) was prepared by diluting Donor Beads 50-fold in dilution buffer. Five μL of the Donor Mix was added to each well and the plate sealed and covered with foil and incubated for 1-2 hours at room temperature in the dark. The plates were read on a Neo2 plate reader instrument from Biotek using standard AlphaLisa settings.
Compounds were tested in duplicate and the % inhibition at each compound concentration was used to generate two dose response curves. One IC50 was generated using average % inhibition at each compound concentration. […]
(In general: Alpha assays give light when donor and acceptor beads are brought close together.)

The next test addresses PI3Kα E545K (Homo sapiens, UniProt P42336, E545K). Description: PI3Kα E545K mutant in vitro cell based assay, MDA-MB-361 cells. Particulars: MDA-MB-361 cell line, 0% FBS, no insulin, 3 hours treatment. Also on record: MDA-MB-361 (ATCC-HTB-27) cell line (PI3Kα E545K); host or cells: MDA-MB-361. The gist of the method:
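MDA-MB-361 cells (PI3Kα E545K) seeded in serum-free MEM assay medium without insulin, attached overnight, then treated 3 h with compound (10-point 1:3 series, 0.3% DMSO). AlphaLISA SureFire readout of lysates. IC50 by 4-parameter fit, normalized to DMSO (max) and 1 μM GDC-0032 (min).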

Some results are limits rather than exact numbers.

T1 sequence (P42336 whole entry H1047R): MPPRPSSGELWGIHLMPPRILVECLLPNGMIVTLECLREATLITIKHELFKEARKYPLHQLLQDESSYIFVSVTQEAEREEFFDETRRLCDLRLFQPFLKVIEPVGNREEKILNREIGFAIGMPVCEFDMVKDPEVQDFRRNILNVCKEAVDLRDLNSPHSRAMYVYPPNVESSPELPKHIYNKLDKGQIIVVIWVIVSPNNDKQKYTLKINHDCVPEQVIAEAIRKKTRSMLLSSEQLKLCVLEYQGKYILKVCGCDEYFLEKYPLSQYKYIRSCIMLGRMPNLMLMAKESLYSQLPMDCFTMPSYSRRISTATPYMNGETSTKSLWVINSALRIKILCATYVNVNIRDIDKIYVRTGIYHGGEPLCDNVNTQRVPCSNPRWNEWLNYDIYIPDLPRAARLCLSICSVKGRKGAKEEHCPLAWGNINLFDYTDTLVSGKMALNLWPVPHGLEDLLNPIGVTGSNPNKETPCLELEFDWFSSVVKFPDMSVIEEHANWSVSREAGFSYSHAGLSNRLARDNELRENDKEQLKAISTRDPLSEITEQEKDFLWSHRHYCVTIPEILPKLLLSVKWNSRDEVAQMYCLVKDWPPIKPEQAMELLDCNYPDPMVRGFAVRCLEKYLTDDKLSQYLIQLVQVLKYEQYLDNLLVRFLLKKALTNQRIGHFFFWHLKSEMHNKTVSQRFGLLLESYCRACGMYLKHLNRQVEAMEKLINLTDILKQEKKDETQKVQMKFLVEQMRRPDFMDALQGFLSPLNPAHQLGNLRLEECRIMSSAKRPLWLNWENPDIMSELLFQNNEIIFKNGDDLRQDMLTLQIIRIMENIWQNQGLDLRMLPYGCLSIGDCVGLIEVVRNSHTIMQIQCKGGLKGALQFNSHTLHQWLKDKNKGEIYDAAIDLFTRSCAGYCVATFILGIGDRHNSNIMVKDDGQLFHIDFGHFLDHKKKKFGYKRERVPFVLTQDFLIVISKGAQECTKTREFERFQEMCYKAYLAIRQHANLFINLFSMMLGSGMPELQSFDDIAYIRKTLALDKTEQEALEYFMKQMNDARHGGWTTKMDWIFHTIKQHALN
T1 sequence (P27986 whole entry partner): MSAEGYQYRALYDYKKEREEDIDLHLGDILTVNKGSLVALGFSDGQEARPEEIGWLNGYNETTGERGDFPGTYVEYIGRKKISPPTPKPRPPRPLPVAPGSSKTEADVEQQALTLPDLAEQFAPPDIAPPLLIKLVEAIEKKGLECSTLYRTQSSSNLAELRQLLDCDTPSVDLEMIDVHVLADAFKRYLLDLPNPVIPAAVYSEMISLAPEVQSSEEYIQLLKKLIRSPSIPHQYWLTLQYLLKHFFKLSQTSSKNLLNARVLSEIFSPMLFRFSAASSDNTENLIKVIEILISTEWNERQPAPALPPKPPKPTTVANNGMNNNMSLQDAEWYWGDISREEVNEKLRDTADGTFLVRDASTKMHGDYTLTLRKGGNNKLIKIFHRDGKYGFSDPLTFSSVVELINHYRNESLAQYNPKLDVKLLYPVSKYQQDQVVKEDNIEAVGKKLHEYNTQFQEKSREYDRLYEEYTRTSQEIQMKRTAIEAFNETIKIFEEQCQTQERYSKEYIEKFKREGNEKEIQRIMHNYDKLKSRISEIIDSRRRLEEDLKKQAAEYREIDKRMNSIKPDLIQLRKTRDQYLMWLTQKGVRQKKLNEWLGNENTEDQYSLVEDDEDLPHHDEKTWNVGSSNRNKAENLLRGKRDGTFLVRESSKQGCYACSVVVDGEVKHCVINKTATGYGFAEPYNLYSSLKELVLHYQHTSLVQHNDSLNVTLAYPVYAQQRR
Chain of PI3Kα E545K (P42336 whole entry E545K): as the sequence (P42336 whole entry H1047R) above, with E545K, R1047H counted along it
Chain of PI3Kα E545K (P27986 whole entry partner): as the sequence (P27986 whole entry partner) above

For orientation: IC50 means the concentration that inhibits the measured activity by half. Turning to `Cc1cc([C@@H](C)Oc2ccc(Cl)nc2C(N)=O)c2oc(-c3ccc4nn(CF)cc4c3)c(C)c(=O)c2c1` [Example 66C, 6-Chloro-3-[(1R)-1-[2-[2-(fluoromethyl)indazol-5-yl]-3,6-dimethyl-4-oxo-chromen-8-yl]ethoxy]pyridine-2-carboxamide], the results for the IC50 against PI3Kα H1047R and at PI3Kα E545K were less than 100 nM and less than 500 nM, respectively.

On to `CONC(=O)c1c(O[C@H](C)c2cc(C)cc3c(=O)c(C)c(-c4ccc5nn(C)cc5c4)oc23)ccc(F)c1F` [Example 37A, 6-[(1R)-1-[3,6-Dimethyl-2-(2-methylindazol-5-yl)-4-oxo-chromen-8-yl]ethoxy]-2,3-difluoro-N-methoxy-benzamide], for which the IC50 on PI3Kα H1047R was less than 100 nM; against PI3Kα E545K it was less than 500 nM. Taken in the same sequence, the figures for `Cc1cc([C@@H](C)Oc2ccc(Cl)nc2C(N)=O)c2oc(-c3ccc4nc(C)oc4c3)c(C)c(=O)c2c1` [Example 53C, 6-Chloro-3-[(1R)-1-[3,6-dimethyl-2-(2-methyl-1,3-benzoxazol-6-yl)-4-oxo-chromen-8-yl]ethoxy]pyridine-2-carboxamide] were less than 100 nM and less than 500 nM. Consider `Cc1cc([C@@H](C)Oc2ccc(Cl)nc2C(N)=O)c2oc(-c3ccc4ncsc4c3)c(C)c(=O)c2c1` [Example 12B, 3-[(1R)-1-[2-(1,3-Benzothiazol-6-yl)-3,6-dimethyl-4-oxo-chromen-8-yl]ethoxy]-6-chloro-pyridine-2-carboxamide], for which the IC50 against PI3Kα H1047R is less than 100 nM; against PI3Kα E545K, less than 500 nM.

As for `Cc1cc([C@@H](C)Oc2ccc(Cl)nc2C(N)=O)c2oc(-c3ccc4nc(C)cn4c3)c(C)c(=O)c2c1` [Example 57A, 6-Chloro-3-[(1R)-1-[3,6-dimethyl-2-(2-methylimidazo[1,2-a]pyridin-6-yl)-4-oxo-chromen-8-yl]ethoxy]pyridine-2-carboxamide], the IC50 is less than 100 nM at PI3Kα H1047R and less than 500 nM against PI3Kα E545K. For `Cc1cc([C@@H](C)Oc2ccc(Cl)nc2S(N)(=O)=O)c2oc(-c3cnn(CCO)c3)c(C)c(=O)c2c1` [Example 61A, 6-Chloro-3-[(1R)-1-[2-[1-(2-hydroxyethyl)pyrazol-4-yl]-3,6-dimethyl-4-oxo-chromen-8-yl]ethoxy]pyridine-2-sulfonamide] the same measures were less than 100 nM and less than 500 nM. Consider `Cc1cc([C@@H](C)Oc2ccc(Cl)nc2S(N)(=O)=O)c2oc(-c3cnn4c3OCC4)c(C)c(=O)c2c1` [Example 85C, 6-Chloro-3-[(1R)-1-[2-(2,3-dihydropyrazolo[5,1-b]oxazol-7-yl)-3,6-dimethyl-4-oxo-chromen-8-yl]ethoxy]pyridine-2-sulfonamide], for which the IC50 was less than 100 nM against PI3Kα H1047R and less than 500 nM against PI3Kα E545K. For `CONC(=O)c1nc(Cl)ccc1O[C@H](C)c1cc(C)cc2c(=O)c(C)c(-c3ccc4nc(C)sc4c3)oc12` [Example 69C, 6-Chloro-3-[(1R)-1-[3,6-dimethyl-2-(2-methyl-1,3-benzothiazol-6-yl)-4-oxo-chromen-8-yl]ethoxy]-N-methoxy-pyridine-2-carboxamide] the same measures were less than 100 nM and less than 500 nM.

For the compound `Cc1cc([C@@H](C)Oc2ccc(Cl)nc2C(N)=O)c2oc(-c3cnc(C)s3)c(C)c(=O)c2c1` [Example 63C, 6-Chloro-3-[(1R)-1-[3,6-dimethyl-2-(2-methylthiazol-5-yl)-4-oxo-chromen-8-yl]ethoxy]pyridine-2-carboxamide], the IC50 at PI3Kα H1047R is less than 100 nM; on PI3Kα E545K it was less than 500 nM.

`Cc1cc([C@@H](C)Oc2ccc(Cl)nc2C(N)=O)c2oc(-c3cnn4c3OCC4)c(C)c(=O)c2c1` [Example 36C, 6-Chloro-3-[(1R)-1-[2-(2,3-dihydropyrazolo[5,1-b]oxazol-7-yl)-3,6-dimethyl-4-oxo-chromen-8-yl]ethoxy]pyridine-2-carboxamide]: the IC50 is less than 100 nM against PI3Kα H1047R and less than 500 nM on PI3Kα E545K. For `Cc1cc([C@@H](C)Oc2ccc(Cl)nc2S(N)(=O)=O)c2oc(-c3cnn(CCS(C)(=O)=O)c3)c(C)c(=O)c2c1` [Example 90C, 6-Chloro-3-[(1R)-1-[3,6-dimethyl-2-[1-(2-methylsulfonylethyl)pyrazol-4-yl]-4-oxo-chromen-8-yl]ethoxy]pyridine-2-sulfonamide] the same measures were less than 100 nM and less than 500 nM. Compound `Cc1cc([C@@H](C)Oc2ccc(Cl)nc2C(N)=O)c2oc(-c3cnn4c3OCCC4)c(C)c(=O)c2c1` [Example 108A, 6-Chloro-3-[(1R)-1-[2-(6,7-dihydro-5H-pyrazolo[5,1-b][1,3]oxazin-3-yl)-3,6-dimethyl-4-oxo-chromen-8-yl]ethoxy]pyridine-2-carboxamide] returned an IC50 at PI3Kα H1047R of less than 100 nM. As for `Cc1cc([C@@H](C)Oc2ccc(Cl)nc2C(N)=O)c2oc(-c3cnn4c3CCC4)c(C)c(=O)c2c1` [Example 123A, 6-Chloro-3-[(1R)-1-[2-(5,6-dihydro-4H-pyrrolo[2,1-e]pyrazol-3-yl)-3,6-dimethyl-4-oxo-chromen-8-yl]ethoxy]pyridine-2-carboxamide], the IC50 against PI3Kα H1047R was less than 100 nM; on PI3Kα E545K, less than 500 nM.

Compound `Cc1cc([C@@H](C)Oc2ccc(Cl)nc2S(N)(=O)=O)c2oc(-c3cnc4nonc4c3)c(C)c(=O)c2c1` [Example 30C, 6-Chloro-3-[(1R)-1-[3,6-dimethyl-2-([1,2,5]oxadiazolo[3,4-b]pyridin-6-yl)-4-oxo-chromen-8-yl]ethoxy]pyridine-2-sulfonamide] gave an IC50 against PI3Kα H1047R of less than 100 nM.

As for `Cc1cc([C@@H](C)Oc2ccc(Cl)nc2C(N)=O)c2oc(-c3ccc4c(cnn4C)c3)c(C)c(=O)c2c1` [Example 40C, 6-Chloro-3-[(1R)-1-[3,6-dimethyl-2-(1-methylindazol-5-yl)-4-oxo-chromen-8-yl]ethoxy]pyridine-2-carboxamide], the IC50 was less than 100 nM at PI3Kα H1047R and less than 500 nM against PI3Kα E545K.

`Cc1cc([C@@H](C)Oc2ccc(Cl)nc2-c2noc(=O)[nH]2)c2oc(-c3ccc4c(c3)OCCN4C)c(C)c(=O)c2c1` [Example 48A, 3-[6-Chloro-3-[(1R)-1-[3,6-dimethyl-2-(4-methyl-2,3-dihydro-1,4-benzoxazin-7-yl)-4-oxo-chromen-8-yl]ethoxy]-2-pyridyl]-4H-1,2,4-oxadiazol-5-one]: the IC50 was less than 100 nM against PI3Kα H1047R and less than 500 nM on PI3Kα E545K. For the compound `Cc1cc([C@@H](C)Oc2cccnc2S(N)(=O)=O)c2oc(-c3cnn4c3OCC4)c(C)c(=O)c2c1` [Example 95C, 3-[(1R)-1-[2-(2,3-Dihydropyrazolo[5,1-b]oxazol-7-yl)-3,6-dimethyl-4-oxo-chromen-8-yl]ethoxy]pyridine-2-sulfonamide], at PI3Kα H1047R, the IC50 is less than 100 nM.

Values taken from US20240182460A1, “ALLOSTERIC CHROMENONE INHIBITORS OF PHOSPHOINOSITIDE 3-KINASE (PI3K) FOR THE TREATMENT OF DISEASE” (PETRA PHARMA CORPORATION, priority 2022, published 2024).
